# Key:
# [1] = test system: CD34+ cells in peripheral blood; experiment: Percentage of CD34+ cells in peripheral blood by flow cytometry; type: in vivo, C57 mice; details: 5 mg/kg hypodermic injection, 4 h post injection, tail blood; compared to DMSO and G-CSF (FIG. 2)
# Description: 9 C57 mice (Experimental animal center, Academy of Military Medical Sciences), male, were randomly divided into 3 groups: DMSO (Beijing Chemical Inc.) group with 3 mice, G-CSF (Xiamen Baote Biotechnology Inc.) group with 3 mice, TA01 group with 3 mice. Injection volume was calculated on the basis of 5 mg/kg body weight, and the medium for the injection was TE buffer with pH 7.5-8.5. At 4 h post hypodermic injection, 100 μL blood was harvested from tail and treated with RBC lysis buffer (Jingmei Biotechnology Inc.), wherein, the volume ratio of the blood to the RBC lysis buffer was 1:10. The two were uniformly mixed, stood for 10-15 min under room temperature, and then centrifuged for 6 min at 1500 rpm/min. After removing the supernatant, 100 ul 1% (v/v) serum (Hyclone Inc.) was added and mixed. Then 0.75 ul purified anti-mouse CD34 (Biolegend Inc) was added (operated on a superclean bench), mixed, and incubated for 1-2 h under room temperature. The mixture was added up to 1.5 ml with PBS containing 1% (v/v) serum, and then centrifuged for 5 min at 1500 rpm/min. After removing the supernatant, 100 ul 1% (v/v) serum was added and mixed. Then 2 ul Goat anti Mice antibody labeled with FITC (Beijing Zhongshanjinqiao Biotechnology Limited Co.) was added, mixed and incubated for 30 min under room temperature. […]
# [2] = test system: WBCs in peripheral blood; experiment: Number of WBCs in peripheral blood (Sysmex Microcell Counter); type: in vivo, C57 mice; details: 5 mg/kg hypodermic injection, 4 h post injection, tail blood; compared to DMSO and G-CSF (FIG. 3)
# Description: 9 C57 mice, male, were randomly divided into 3 groups: DMSO group with 3 mice, G-CSF group with 3 mice, and TA01 group with 3 mice. Injection volume was calculated on the basis of 5 mg/kg body weight, and the medium for injection was TE buffer with pH 7.5-8.5. At 4 h post hypodermic injection, 10 μl blood was harvested from tail and treated with 2 ml cell diluting buffer (Jinnan Bolai Biotechnology Limited Co.). The number of WBCs was determined by a Sysmex Microcell Counter.
# [3] = test system: MNCs in peripheral blood; experiment: CFU and CFU-GM generated by MNCs in peripheral blood (semisolid medium culture); type: in vivo, C57 mice; details: 5 mg/kg hypodermic injection, blood at 4 h, MNCs cultured 7 days; compared to DMSO and G-CSF (FIG. 4)
# Description: 9 C57 mice, male, were randomly divided into 3 groups: DMSO group with 3 mice, G-CSF group with 3 mice, TA01 group with 3 mice. Injection volume was calculated on the basis of 5 mg/kg body weight, and the medium for injection was TE buffer with pH 7.5-8.5. At 4 h post hypodermic injection, the eyeballs were extracted and the peripheral blood was collected into a 10 ml centrifuge tube which was rinsed with heparin (Tianjin Haoyang Bioproduct Technology Limited Co.) in advance, and then PBS (Hyclone Inc.) was added up to 5 ml and mixed. Mouse percoll (Tianjin Haoyang Bioproduct Technology Limited Co.) was preloaded into vials at 5 ml/vial (operated on a superclean bench), and then the blood mixed with PBS was slightly impregnated into the upper layer of the percoll and centrifuged for 20 min at 2000 rpm/min. Cells in the middle layer were transferred into a new 10 ml centrifuge tube which was filled up to 10 ml with PBS, and centrifuged for 5 min at 1500 rpm/min to remove PBS in the supernatant. The tube was filled up to 10 ml with PBS, centrifuged for another 5 min at 1500 rpm/min to remove PBS in the supernatant. Then, the tube was filled up to 1 ml with PBS. The number of cells was then counted and the number of the mononuclear cells (MNCs) per ml of the solution was calculated. […] Finally, CFU and CFU-GM were counted.
# [4] = test system: mice receiving a lethal irradiation; experiment: Survival of lethally irradiated mice after transplant of mobilized peripheral blood MNCs; type: in vivo, C57 mice; details: 7.0 Gy 60Co irradiation; tail vein injection of MNCs from donors given 5 mg/kg, 4 h; survival in 30 days; compared to DMSO and G-CSF (FIG. 5)
# Description: 9 C57 mice, male, were randomly divided into 3 groups, and then received a whole body irradiation by ^60Co γ ray at 2.72 Gy/min with a volume of 7.0 Gy. 9 C57 mice, male, were randomly divided into 3 groups: DMSO group with 3 mice, G-CSF group with 3 mice, and TA01 group with 3 mice. Injection volume was calculated on the basis of 5 mg/kg body weight, and the medium for injection was TE buffer with pH 7.5-8.5. At 4 h post hypodermic injection, the eyeballs were extracted and peripheral blood was collected into a 10 ml centrifuge tube which was rinsed with heparin in advance, and then PBS was added up to 5 ml and mixed. Mouse percoll (Tianjin Haoyang Bioproduct Technology Limited Co.) was preloaded into vials at 5 ml/vial (operated on a superclean bench), and then the blood mixed with PBS was slightly impregnated to the upper layer of the percoll and centrifuged for 20 min at 2000 rpm/min. Cells in the middle layer were transferred into a new 10 ml centrifuge tube which was filled up to 10 ml with PBS, centrifuged for 5 min at 1500 rpm/min to remove PBS in the supernatant. The tube was filled up to 10 ml with PBS, and centrifuged for another 5 min at 1500 rpm/min to remove PBS in the supernatant. Then the tube was filled up to 0.5 ml with PBS. […] The number of survival mice in 30 days was counted.
# [5] = test system: hematopoietic stem cells; experiment: Mobilization of hematopoietic stem cells into peripheral blood (overall conclusion); type: in vivo; details: summary statement; verification processes for other compounds not described
structure (smiles),measurement,setting,value
"CN(C)CCN(CCN(C)C)CCN(C)C [TA01, Tris[2-(dimethylamino)ethyl]amine]",percentage of CD34+ cells in peripheral blood,[1],can increase the percentage of CD34+ cells in peripheral blood compared to DMSO and G-CSF
same,number of WBCs in peripheral blood,[2],can increase the number of WBCs in peripheral blood compared to DMSO and G-CSF
same,number of CFU generated by MNCs in peripheral blood,[3],can promote the numbers of both CFU and CFU-GM
same,number of CFU-GM generated by MNCs in peripheral blood,[3],can promote the numbers of both CFU and CFU-GM
same,survival rate of mice receiving a lethal irradiation,[4],survival rate of the mice receiving a lethal irradiation can be increased
same,mobilization of hematopoietic stem cells into peripheral blood,[5],can efficiently mobilize hematopoietic stem cells into peripheral blood

# — patent US20120322886A1, “USE OF A SATURATED AMINES COMPOUND IN MANUFACTURE OF MEDICAMENTS FOR […] HEMATOPOIETIC STEM CELL” (Institute of Transfusion Medicine, Academy of Mili -tary …, priority 2009, published 2012)
